Patent publication US9839644B2, “Formulations and methods for treatment of metabolic syndrome” (ARKAY Therapeutics, LLC, priority 2014, dated 2017)
“Also recorded” adds a separate entry of the source.

Key:
C57BL/6J mice = conditions: mouse, in vivo; cited from earlier work
[1] = system: male Sprague Dawley rats fed with High fructose diet or High fat diet (HFD); conditions: rat, in vivo; cited from earlier work
[2] = system: C57BL/6J diet-induced obese (DIO) mice; conditions: cited from earlier work
C57BL/6J DIO mice = conditions: Metformin alone (150 mg/Kg/day), 29-day study
From the text: Age and weight-matched C57BL/6J lean and DIO male mice were obtained from Jackson Labs (Bar Harbor, Me.). C57BL/6J DIO mice were fed high-fat diet (HFD) for 16 weeks to induce hepatic insulin resistance and pancreatic beta cell dysfunction. […] Lean control mice were maintained on D12450B (10% Kcal fat) Chow diet and DIO animals were maintained D12492 (60% KCal fat) research diets. Tap water was available ad libitum during the study. Animals were acclimated for a week. […] Test articles or the drugs were reconstituted in DMSO and 0.5% Methyl cellulose was used as the vehicle.
In a 29-day study, sub-maximal dose of Metformin (150 mg/Kg/day) and sub-maximal doses of Celecoxib (10 mg/Kg/day or 20 mg/Kg/day) were administered together or the vehicle was administered as an oral gavage in the morning and a sub-hypertensive dose of Valsartan (2 mg/Kg/day) or the vehicle was administered 6 hours later. Non-fasting BG measurements will be taken on Days 1, 15, 22, and 29. Animals were transferred to clean cages, food and water were uninterrupted. A blood sample was collected via tail nick and blood glucose was assessed using a hand-held Glucometer. Body weights were determined twice weekly for the duration of the study period.

pancreatic beta cells = conditions: cited from earlier work
C57BL/6J obese mice [3] = conditions: cited from earlier work
C57BL/6J obese mice [4] = conditions: cited from earlier work; remark: listed apart in the source
[5] = clinical study; cited from earlier work
obese patients with T2DM = conditions: translational preclinical models and obese patients with T2DM; cited from earlier work
[6] = system: C57BL/6J diet-induced obese (DIO) mice; conditions: cited from earlier work; remark: listed apart in the source
prediabetes patients = conditions: cited from earlier work
[7] = system: subjects with impaired glucose metabolism; conditions: 26 weeks; cited from earlier work

In the case of COc1ccc2c(c1)c(CC(=O)O)c(C)n2C(=O)c1ccc(Cl)cc1 [Indomethacin], the “HFD-induced obesity and insulin resistance” value (C57BL/6J mice) is given as “prevented”.

For CS(=O)(=O)Nc1ccc([N+](=O)[O-])cc1Oc1ccccc1 [Mesulid], the insulin sensitivity [1] is given as “restore”, the low-grade inflammation [1] is given as “reverse” and the oxidative stress [1] is given as “reduce”.

In the case of CN(C)C(=N)N=C(N)N [Metformin], the “glucose tolerance (OGTT)” value ([2]; 2 g/Kg glucose after 20 hour fast, 0.25% and 0.5% Metformin = 150 and 300 mg/Kg/day) is listed as “improves”, the HFD-induced insulin resistance ([2]; C57BL/6J DIO model) is listed as “ameliorates” and the “elevated non-fasting BG levels” value (C57BL/6J DIO mice) is listed as “actually enhanced; also recorded: did not suppress”.

For CS(=O)(=O)Nc1ccc([N+](=O)[O-])cc1OC1CCCCC1 [NS-398], the beta cell dysfunction (pancreatic beta cells) is given as “reverses”.

In the case of NS(=O)(=O)c1ccc(-n2nc(C(F)(F)F)cc2-c2ccc(Cl)cc2)cc1 [SC58236], the “glucose tolerance (IPGTT)” value (C57BL/6J obese mice [3]; 6 hour fast, glucose 2 g/Kg) is listed as “improves”, the plasma insulin levels (C57BL/6J obese mice [3]; after glucose injection) is listed as “elevates” and the HbA1c levels (C57BL/6J obese mice [4]; C57BL/6J obese mice) is listed as “reduces”. The “reduction of HbA1c levels” value (C57BL/6J obese mice [4]; selective Cox-2 inhibition) was “about 0.4%”.

In the case of O=C(Oc1ccccc1C(=O)O)c1ccccc1O [Salsalate], the “reduction of glycosylated hemoglobin A1c, average” value [5] is listed as 0.37% and the systemic insulin sensitivity (obese patients with T2DM) is listed as “restore”.

For CCCCC(=O)N(Cc1ccc(-c2ccccc2-c2nnn[nH]2)cc1)[C@H](C(=O)O)C(C)C [Valsartan], the systolic blood pressure ([6]; 1 mg/Kg/day, C57BL/6J obese mice) is listed as “no effect”, the glucose tolerance ([6]; overnight fast, IP 2 g/Kg glucose) is listed as “improves” and the impaired glucose tolerance ([6]; sub-hypertensive dose 1 mg/Kg/day, C57BL/6J obese mice) is listed as “improves”. For the same compound, the “onset of Type II diabetes” value (prediabetes patients) was “delay the onset” and the “beta cells function and insulin sensitivity” value [7] was “improved”.
